According to ChEMBL document CHEMBL1201862, “PubChem BioAssay data set” (2004):
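Protocol summary: plate cells (96-well), add compound at 5 concentrations, incubate 48 h, interpolate endpoints linearly. At the GI50, growth is halved.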 Activity calls are given as the source filed them. Cut-off read from the data, not from the text of the source: active = GI50 up to about 1.1 µM and inactive = higher.

What was measured:
Experiment in all cases: NCI anticancer screen, dose series, 48 h
[1] = tested on: NCI-H226
[2] = tested on: SF-268
[3] = tested on: RXF 393
[4] = tested on: A498
[5] = tested on: EKVX
[6] = tested on: HCT-116
[7] = tested on: UACC-257
[8] = tested on: OVCAR-8
[9] = tested on: LOX IMVI
[10] = tested on: KM12
[11] = tested on: HOP-62
[12] = tested on: NCI-H522
[13] = tested on: CAKI-1
[14] = tested on: HT-29
[15] = tested on: SF-539
[16] = tested on: IGROV-1
[17] = tested on: M14
[18] = tested on: SK-OV-3
[19] = tested on: SR
[20] = tested on: OVCAR-3

## O=C(Nc1ccc(Cl)c(Cl)c1)C(=O)C(C(=O)c1ccccc1F)C1OC(=O)c2ccccc21 (configuration not stated)
[1]
  GI50: 17.9 µM (inactive)
[2]
  GI50: 23.7 µM (inactive)
[3]
  GI50: 20.7 µM (inactive)
[4]
  GI50: 37.8 µM (inactive)
[5]
  GI50: 22.4 µM (inactive)
[6]
  GI50: 16.8 µM (inactive)
[7]
  GI50: 40.8 µM (inactive)
[8]
  GI50: 15.2 µM (inactive)
[9]
  GI50: 18.4 µM (inactive)
[10]
  GI50: 20 µM (inactive)
[11]
  GI50: 23.4 µM (inactive)
[12]
  GI50: 12.6 µM (inactive)
[13]
  GI50: 35.2 µM (inactive)
[14]
  GI50: 34.4 µM (inactive)
[15]
  GI50: 11.1 µM (inactive)
[16]
  GI50: 27.4 µM (inactive)
[17]
  GI50: 16.4 µM (inactive)
[18]
  GI50: 27.7 µM (inactive)
[19]
  GI50: 10.4 µM (inactive)

## N=c1n(C(=O)N2CCCC2)c2cc(Cl)ccc2n1C1=NCCN1
[1]
  GI50: > 100 µM (inactive)
[2]
  GI50: > 100 µM (inactive)
[3]
  GI50: 82.4 µM (inactive)
[4]
  GI50: > 100 µM (inactive)
[5]
  GI50: > 100 µM (inactive)
[6]
  GI50: 55.5 µM (inactive)
[7]
  GI50: > 100 µM (inactive)
[8]
  GI50: 88.3 µM (inactive)
[9]
  GI50: 28.3 µM (inactive)
[10]
  GI50: > 100 µM (inactive)
[11]
  GI50: > 100 µM (inactive)
[12]
  GI50: 38.6 µM (inactive)
[13]
  GI50: 43.2 µM (inactive)
[14]
  GI50: 75.7 µM (inactive)
[15]
  GI50: 55.2 µM (inactive)
[16]
  GI50: 73.3 µM (inactive)
[20]
  GI50: 80.5 µM (inactive)
[17]
  GI50: 59.6 µM (inactive)
[18]
  GI50: > 100 µM (inactive)
[19]
  GI50: 38.2 µM (inactive)

## COc1nc(N=P(c2ccccc2)(c2ccccc2)c2ccccc2)cc(=O)n1C
[1]
  GI50: > 100 µM (inactive)
[2]
  GI50: > 100 µM (inactive)
[3]
  GI50: > 100 µM (inactive)
[4]
  GI50: > 100 µM (inactive)
[5]
  GI50: > 100 µM (inactive)
[6]
  GI50: > 100 µM (inactive)
[7]
  GI50: > 100 µM (inactive)
[8]
  GI50: > 100 µM (inactive)
[9]
  GI50: > 100 µM (inactive)
[10]
  GI50: > 100 µM (inactive)
[11]
  GI50: > 100 µM (inactive)
[12]
  GI50: > 100 µM (inactive)
[13]
  GI50: > 100 µM (inactive)
[14]
  GI50: > 100 µM (inactive)
[15]
  GI50: > 100 µM (inactive)
[16]
  GI50: > 100 µM (inactive)
[20]
  GI50: > 100 µM (inactive)
[17]
  GI50: > 100 µM (inactive)
[18]
  GI50: > 100 µM (inactive)
[19]
  GI50: 0.0233 µM (active)

## CC1CC(c2ccccc2)=Nc2ccccc2S1 (configuration not stated)
[1]
  GI50: > 100 µM (inactive)
[2]
  GI50: > 100 µM (inactive)
[3]
  GI50: > 100 µM (inactive)
[4]
  GI50: > 100 µM (inactive)
[5]
  GI50: 72.8 µM (inactive)
[6]
  GI50: > 100 µM (inactive)
[7]
  GI50: > 100 µM (inactive)
[8]
  GI50: > 100 µM (inactive)
[9]
  GI50: 84.7 µM (inactive)
[10]
  GI50: > 100 µM (inactive)
[11]
  GI50: > 100 µM (inactive)
[12]
  GI50: 41.9 µM (inactive)
[13]
  GI50: > 100 µM (inactive)
[14]
  GI50: > 100 µM (inactive)
[15]
  GI50: > 100 µM (inactive)
[16]
  GI50: > 100 µM (inactive)
[17]
  GI50: > 100 µM (inactive)
[18]
  GI50: > 100 µM (inactive)
[19]
  GI50: > 100 µM (inactive)

## Cn1c(=O)c(Cl)c(N=[N+]=[N-])c2ccccc21
[1]
  GI50: 39.8 µM (inactive)
[2]
  GI50: > 100 µM (inactive)
[3]
  GI50: 69.2 µM (inactive)
[4]
  GI50: > 100 µM (inactive)
[5]
  GI50: 22.1 µM (inactive)
[6]
  GI50: 93.8 µM (inactive)
[7]
  GI50: > 100 µM (inactive)
[8]
  GI50: > 100 µM (inactive)
[9]
  GI50: 55.7 µM (inactive)
[10]
  GI50: 0.0324 µM (active)
[11]
  GI50: > 100 µM (inactive)
[12]
  GI50: 74.3 µM (inactive)
[13]
  GI50: 78.7 µM (inactive)
[14]
  GI50: > 100 µM (inactive)
[15]
  GI50: > 100 µM (inactive)
[16]
  GI50: > 100 µM (inactive)
[20]
  GI50: 33.3 µM (inactive)
[18]
  GI50: > 100 µM (inactive)
[19]
  GI50: 58.5 µM (inactive)

## CC(C)C1=C(O)C(=O)C2=C(C1=O)C(OC=O)C(O)C1C(C)(C)CCCC21C (configuration not stated)
[1]
  GI50: 5.08 µM (inactive)
[2]
  GI50: 10.5 µM (inactive)
[3]
  GI50: 6.82 µM (inactive)
[4]
  GI50: 14.8 µM (inactive)
[5]
  GI50: 10.1 µM (inactive)
[6]
  GI50: 7.73 µM (inactive)
[7]
  GI50: 9.1 µM (inactive)
[8]
  GI50: 7.29 µM (inactive)
[9]
  GI50: 3.33 µM (inactive)
[10]
  GI50: 12 µM (inactive)
[11]
  GI50: 37.6 µM (inactive)
[12]
  GI50: 10.8 µM (inactive)
[13]
  GI50: 4.04 µM (inactive)
[14]
  GI50: 11.2 µM (inactive)
[15]
  GI50: 13.7 µM (inactive)
[16]
  GI50: 10.3 µM (inactive)
[20]
  GI50: 12.1 µM (inactive)
[17]
  GI50: 11.9 µM (inactive)
[18]
  GI50: 13.4 µM (inactive)
[19]
  GI50: 3 µM (inactive)
